Results taken from the supplement of paper PMC8372320.

Assay: photocatalytic hydrogen evolution rate (per 5 mg catalyst); higher = more photocatalytic H2 evolution; extreme values may be limits of the assay
Details: catalyst mass (mg): 5; Pt cocatalyst (wt%): 3; sacrificial medium: triethylamine/methanol/water 1:1:1
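Note: aromatic molecules in triethylamine/methanol/water with Pt photoreduced in situ, irradiated 3 h under a 1 sun AM 1.5G solar simulator (350–1000 nm), H2 quantified by headspace gas chromatography; listed molecule itself used as the photocatalyst at 5 mg per vial.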

| Compound | photocatalytic hydrogen evolution rate [µmol/h] |
| --- | --- |
| O=Cc1cc(O)cc(F)c1 | 0 |
| O=S1(=O)c2ccccc2-c2ccccc21 | 0.222 |
| CCOC(=O)c1nc(C(=O)OCC)nc(C(=O)OCC)n1 | 0.00108 |
| O=Cc1cc(O)c(O)c(O)c1 | 0 |
| CCOC(=O)c1cncc(C(=O)OCC)c1 | 0.00607 |
| c1ccc2nc3ccccc3nc2c1 | 0 |
| CC(C)c1cc(C(C)C)c(-c2ccccc2P(C(C)(C)C)C(C)(C)C)c(C(C)C)c1 | 0 |
| COc1cc(C=O)c(OC)cc1C=O | 1.37 |
| N#Cc1ccc(O)cc1 | 0 |
| N#Cc1cccc(C#N)c1 | 0 |
| O=C1C(Cl)=C(Cl)C(=O)C(Cl)=C1Cl | 0 |
| N#CCc1ccc(B(O)O)cc1 | 0 |
| N#Cc1ccc(/C=C/c2ccc(/C=C/c3ccc(C#N)cc3)cc2)cc1 | 0.411 |
| CC(=O)c1cc(C(C)=O)cc(C(C)=O)c1 | 1.98 |
| c1ccc(P(c2ccccc2)c2ccc3ccccc3c2-c2c(P(c3ccccc3)c3ccccc3)ccc3ccccc23)cc1 | 0 |
| Brc1ccc(Br)c2nonc12 | 0 |
| COc1ccc(N2C(=O)c3ccc4c5ccc6c7c(ccc(c8ccc(c3c48)C2=O)c75)C(=O)N(c2ccc(OC)cc2)C6=O)cc1 | 0 |
| O=Cc1c(O)c(C=O)c(O)c(C=O)c1O | 1.03 |
| O=C1c2cc(Br)ccc2-c2ccc(Br)cc21 | 0.214 |
| Nc1ccncc1 | 0 |
| CC1(C)OB(c2ccc(N)cc2)OC1(C)C | 0.0761 |
| O=[N+]([O-])c1ccc(C(=C(c2ccc([N+](=O)[O-])cc2)c2ccc([N+](=O)[O-])cc2)c2ccc([N+](=O)[O-])cc2)cc1 | 0 |
| CC(=O)c1ccc(N)cc1 | 0.229 |
| O=C1NC(=O)c2ccc3c4ccc5c6c(ccc(c7ccc1c2c73)c64)C(=O)NC5=O | 0 |
| O=C(C(=O)c1ccccc1)c1ccccc1 | 0.736 |
| N#Cc1ccc(-c2ccc(N)cc2)cc1 | 0 |
| c1ccc(N=Nc2ccccc2)cc1 | 0 |
